According to ChEMBL document CHEMBL1201862, “PubChem BioAssay data set” (2004):
Active and inactive are the calls of the source.

How the values were obtained:
[1] = intracellular Trypanosoma cruzi inhibitors in host cells – cell-based, plate reader, cherry-pick samples, set 3, dose response (AID 651818); assay type: functional;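 note: compounds incubated with infected cells for about four days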
[2] = biological target: T1, Corticotropin-releasing factor receptor 2/Corticotropin-releasing factor-binding protein (Homo sapiens, UniProt P24387+Q13324); experiment: Dose Response confirmation of uHTS hits for small molecule antagonists of the CRF-binding protein and CRF-R2 receptor complex.; assay type: functional; conditions: read-out: IC50_Mean
T1 sequence (Q13324 whole entry): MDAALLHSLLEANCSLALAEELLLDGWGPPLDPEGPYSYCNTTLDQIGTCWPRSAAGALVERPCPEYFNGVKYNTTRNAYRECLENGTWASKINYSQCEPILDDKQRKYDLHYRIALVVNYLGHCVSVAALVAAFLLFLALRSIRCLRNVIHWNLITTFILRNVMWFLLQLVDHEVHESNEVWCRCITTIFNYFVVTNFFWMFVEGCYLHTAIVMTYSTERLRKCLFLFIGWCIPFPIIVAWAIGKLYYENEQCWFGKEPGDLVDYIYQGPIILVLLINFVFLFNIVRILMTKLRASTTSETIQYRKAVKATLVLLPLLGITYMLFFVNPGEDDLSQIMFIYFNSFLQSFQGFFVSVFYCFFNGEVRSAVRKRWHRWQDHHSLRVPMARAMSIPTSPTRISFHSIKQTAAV
T1 sequence (P24387 whole entry): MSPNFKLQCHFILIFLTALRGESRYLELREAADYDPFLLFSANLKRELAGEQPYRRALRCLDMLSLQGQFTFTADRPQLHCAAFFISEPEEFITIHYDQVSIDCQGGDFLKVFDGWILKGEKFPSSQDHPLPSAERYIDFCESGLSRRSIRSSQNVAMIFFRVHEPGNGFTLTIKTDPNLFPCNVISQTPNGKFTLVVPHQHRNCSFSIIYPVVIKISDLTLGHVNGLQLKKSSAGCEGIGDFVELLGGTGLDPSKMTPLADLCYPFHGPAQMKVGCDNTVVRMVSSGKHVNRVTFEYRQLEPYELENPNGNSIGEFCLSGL

[3] = biological target: T2, Trace amine-associated receptor 1 (Homo sapiens, UniProt Q96RJ0); experiment: Fluorescence-based cell-based high throughput dose response assay to identify agonists of the human trace amine associated receptor 1 (TAAR1).; assay type: functional
T2 sequence (Q96RJ0 whole entry): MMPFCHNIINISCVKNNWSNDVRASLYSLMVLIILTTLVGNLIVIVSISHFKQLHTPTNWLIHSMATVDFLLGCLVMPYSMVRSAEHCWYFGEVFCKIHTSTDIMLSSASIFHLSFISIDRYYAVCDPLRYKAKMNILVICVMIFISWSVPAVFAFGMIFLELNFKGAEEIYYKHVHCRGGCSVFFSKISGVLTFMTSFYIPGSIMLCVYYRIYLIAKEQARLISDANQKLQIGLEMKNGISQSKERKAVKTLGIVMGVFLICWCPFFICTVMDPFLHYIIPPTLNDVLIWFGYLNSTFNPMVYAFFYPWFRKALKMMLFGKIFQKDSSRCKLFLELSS

[4] = cells; assay type: functional, cell-based
[5] = biological target: T1, Corticotropin-releasing factor receptor 2/Corticotropin-releasing factor-binding protein; experiment: activators of CRF receptor 2 with binding protein – uHTS hits, confirmation (AID 602473); assay type: functional; conditions: read-out: EC50_Mean
[6] = cells; assay type: functional, cell-based; remark: listed apart in the source
[7] = biological target: T2, Trace amine-associated receptor 1; experiment: Counterscreen for agonists of the human trace amine associated receptor 1 (hTAAR1): Fluorescence-based cell-based high throughput dose response assay to identify hTAAR1 agonist that also desensitize TAAR1 receptor response.; assay type: functional
[8] = OVCAR-3 cell viability loss – plate reader, dry powder samples, PAX8 inhibitor project, dose response (AID 743044); assay type: functional, cell-based
[9] = OVCAR8 cell viability loss – plate reader, dry powder samples, PAX8 project, dose response (AID 743197); assay type: functional, cell-based; conditions: OVCAR-8
[10] = biological target: Paired box protein Pax-8 (Homo sapiens, UniProt Q06710); experiment: PAX8 transcriptional activity inhibition in RMG-I – RMG-I cells, luciferase, cherry-pick, dose response (AID 687027); assay type: functional, cell-based;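 note: luciferase reporter driven by Pax8 target thyroperoxidase promoter measured by SteadyGlo luminescence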
Chain of Paired box protein Pax-8 (Q06710 whole entry): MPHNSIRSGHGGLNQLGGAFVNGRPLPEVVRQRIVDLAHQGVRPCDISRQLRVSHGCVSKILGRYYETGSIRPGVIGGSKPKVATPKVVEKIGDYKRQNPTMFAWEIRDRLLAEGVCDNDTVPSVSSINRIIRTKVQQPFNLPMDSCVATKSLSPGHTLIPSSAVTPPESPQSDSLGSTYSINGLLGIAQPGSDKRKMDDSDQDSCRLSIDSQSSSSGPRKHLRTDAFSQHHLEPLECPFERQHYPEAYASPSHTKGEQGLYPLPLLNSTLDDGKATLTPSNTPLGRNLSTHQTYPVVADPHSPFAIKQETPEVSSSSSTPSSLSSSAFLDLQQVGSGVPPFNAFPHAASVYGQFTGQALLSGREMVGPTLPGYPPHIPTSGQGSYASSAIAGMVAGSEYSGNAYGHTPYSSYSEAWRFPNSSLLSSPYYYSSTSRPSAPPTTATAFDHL

[11] = tested on: Vero; experiment: mammalian cell viability reduction – secondary assay, cytotoxicity control for West Nile virus antiviral project, dose response (AID 1650); assay type: functional, Chlorocebus sabaeus; conditions: Chlorocebus sabaeus, Vero
[12] = biological target: T3, Ubiquitin-conjugating enzyme E2 N (Homo sapiens, UniProt P61088); assay type: functional;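 note: Dose-response confirmation in a TR-FRET assay detecting UBC13-driven polyubiquitin chain formation, inhibition measured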
T3 sequence (P61088 whole entry): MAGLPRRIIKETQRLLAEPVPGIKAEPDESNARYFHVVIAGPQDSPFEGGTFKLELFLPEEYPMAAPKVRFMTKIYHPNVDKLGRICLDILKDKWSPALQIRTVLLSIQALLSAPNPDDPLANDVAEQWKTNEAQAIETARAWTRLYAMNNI

[13] = biological target: T4, High affinity choline transporter 1 (Homo sapiens, UniProt Q9GZV3); experiment: human choline transporter blockers, potency – cell-based, 5-point CRC, membrane potential dye, dose response (AID 504840); assay type: functional
T4 sequence (Q9GZV3 whole entry): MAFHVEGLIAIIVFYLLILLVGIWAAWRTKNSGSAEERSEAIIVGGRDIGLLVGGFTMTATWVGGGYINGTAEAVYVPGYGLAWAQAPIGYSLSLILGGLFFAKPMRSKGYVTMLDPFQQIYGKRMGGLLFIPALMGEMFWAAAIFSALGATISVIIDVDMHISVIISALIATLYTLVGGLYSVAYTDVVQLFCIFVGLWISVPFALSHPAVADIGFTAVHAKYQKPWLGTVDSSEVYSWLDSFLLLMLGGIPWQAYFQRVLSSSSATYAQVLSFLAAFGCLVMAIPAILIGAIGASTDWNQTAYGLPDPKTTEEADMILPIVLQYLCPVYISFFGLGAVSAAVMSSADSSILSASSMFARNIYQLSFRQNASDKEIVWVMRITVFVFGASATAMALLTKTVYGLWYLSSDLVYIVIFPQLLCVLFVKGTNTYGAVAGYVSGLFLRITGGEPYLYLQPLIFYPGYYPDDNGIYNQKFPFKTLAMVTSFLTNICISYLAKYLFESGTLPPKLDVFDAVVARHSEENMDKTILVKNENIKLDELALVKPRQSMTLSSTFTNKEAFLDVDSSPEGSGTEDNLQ

[14] = general cell-killing toxicity readout – plate reader, dry powder samples, cytotoxicity control for PAX8 inhibitor project, dose response (AID 743021); assay type: functional, cell-based
[15] = biological target: Kallikrein-7 (Homo sapiens, UniProt P49862); experiment: Fluorescence Intensity-based biochemical primary high throughput dose response assay to identify activators of kallikrein-7 (K7) zymogen.
Chain of Kallikrein-7 (P49862 whole entry): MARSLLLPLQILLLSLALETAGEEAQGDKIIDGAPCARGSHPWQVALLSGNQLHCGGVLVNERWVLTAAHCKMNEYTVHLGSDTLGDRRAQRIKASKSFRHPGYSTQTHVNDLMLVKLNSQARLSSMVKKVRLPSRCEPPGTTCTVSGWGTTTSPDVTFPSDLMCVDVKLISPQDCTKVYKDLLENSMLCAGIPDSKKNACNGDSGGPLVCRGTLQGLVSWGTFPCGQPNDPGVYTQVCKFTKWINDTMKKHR

[16] = biological target: Large T antigen (Simian virus 40, UniProt P03070); assay type: functional, Betapolyomavirus macacae;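 note: Confirmatory-stage PubChem screen for compounds that inhibit SV40 T antigen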
Chain of Large T antigen (P03070 whole entry): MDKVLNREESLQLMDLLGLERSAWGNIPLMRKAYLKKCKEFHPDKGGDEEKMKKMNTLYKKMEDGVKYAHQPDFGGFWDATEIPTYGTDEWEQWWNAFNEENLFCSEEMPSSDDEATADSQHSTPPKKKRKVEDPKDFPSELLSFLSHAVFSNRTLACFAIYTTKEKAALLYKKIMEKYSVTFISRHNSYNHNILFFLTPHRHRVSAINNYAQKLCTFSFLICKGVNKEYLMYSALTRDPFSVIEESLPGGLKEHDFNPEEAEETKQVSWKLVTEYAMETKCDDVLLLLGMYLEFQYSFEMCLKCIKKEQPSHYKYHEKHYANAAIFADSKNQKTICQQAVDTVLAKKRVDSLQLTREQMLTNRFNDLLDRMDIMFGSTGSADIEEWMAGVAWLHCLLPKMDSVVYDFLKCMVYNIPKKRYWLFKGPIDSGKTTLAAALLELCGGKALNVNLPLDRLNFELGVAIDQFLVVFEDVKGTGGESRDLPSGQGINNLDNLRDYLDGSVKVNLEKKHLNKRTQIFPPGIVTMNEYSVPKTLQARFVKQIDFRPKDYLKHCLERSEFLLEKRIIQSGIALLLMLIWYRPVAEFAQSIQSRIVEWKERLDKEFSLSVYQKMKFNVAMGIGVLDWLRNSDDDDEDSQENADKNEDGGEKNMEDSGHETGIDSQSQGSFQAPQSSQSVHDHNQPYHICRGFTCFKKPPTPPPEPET

[17] = biological target: T5, Histone-lysine N-methyltransferase NSD2 (Homo sapiens, UniProt O96028); assay type: biochemical
T5 sequence (O96028 whole entry): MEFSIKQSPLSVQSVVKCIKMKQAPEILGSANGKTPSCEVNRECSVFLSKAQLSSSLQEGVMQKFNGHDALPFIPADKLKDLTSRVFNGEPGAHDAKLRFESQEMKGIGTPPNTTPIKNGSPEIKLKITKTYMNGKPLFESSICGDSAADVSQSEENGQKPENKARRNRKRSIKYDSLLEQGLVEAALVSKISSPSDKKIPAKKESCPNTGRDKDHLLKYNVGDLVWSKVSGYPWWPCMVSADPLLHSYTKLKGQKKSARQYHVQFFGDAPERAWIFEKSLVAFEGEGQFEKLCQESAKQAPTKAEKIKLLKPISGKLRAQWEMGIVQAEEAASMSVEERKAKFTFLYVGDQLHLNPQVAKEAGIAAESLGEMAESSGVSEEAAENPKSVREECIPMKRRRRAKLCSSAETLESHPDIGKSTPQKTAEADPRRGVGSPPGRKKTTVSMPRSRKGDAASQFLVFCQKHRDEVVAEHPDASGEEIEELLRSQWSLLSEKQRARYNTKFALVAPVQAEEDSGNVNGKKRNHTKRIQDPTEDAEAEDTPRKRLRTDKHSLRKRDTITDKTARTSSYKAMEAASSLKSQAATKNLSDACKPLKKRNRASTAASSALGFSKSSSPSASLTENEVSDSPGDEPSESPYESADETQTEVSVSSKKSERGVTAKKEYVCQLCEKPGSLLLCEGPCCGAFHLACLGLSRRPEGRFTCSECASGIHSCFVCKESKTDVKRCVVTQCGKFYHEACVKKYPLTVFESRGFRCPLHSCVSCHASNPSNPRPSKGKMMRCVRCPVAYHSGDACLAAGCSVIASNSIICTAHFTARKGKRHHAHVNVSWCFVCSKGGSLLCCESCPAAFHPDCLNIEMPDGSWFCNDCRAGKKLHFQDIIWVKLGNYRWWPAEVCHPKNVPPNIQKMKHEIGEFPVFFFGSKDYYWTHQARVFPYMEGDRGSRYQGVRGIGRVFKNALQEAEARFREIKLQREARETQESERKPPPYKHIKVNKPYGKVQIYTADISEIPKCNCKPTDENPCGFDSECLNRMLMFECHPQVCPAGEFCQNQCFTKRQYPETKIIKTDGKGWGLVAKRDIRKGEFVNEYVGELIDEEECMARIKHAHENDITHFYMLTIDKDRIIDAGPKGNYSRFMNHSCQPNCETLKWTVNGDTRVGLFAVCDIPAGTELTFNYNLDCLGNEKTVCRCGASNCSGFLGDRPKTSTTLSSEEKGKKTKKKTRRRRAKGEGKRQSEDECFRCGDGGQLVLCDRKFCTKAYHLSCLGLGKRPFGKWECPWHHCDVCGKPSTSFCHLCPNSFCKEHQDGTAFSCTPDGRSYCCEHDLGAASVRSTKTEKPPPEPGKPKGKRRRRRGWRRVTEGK

In the case of `O=C(N/N=C/c1ccc(-c2cccc(Cl)c2)o1)c1ccccn1`, the AC50 [1] is reported as 0.15 µM (active).

For `CN1C(=O)NC(c2ccccc2)C2=C1CN(CCc1ccccc1)C2=O` (stereo unspecified), the IC50 [2] was > 47.1 µM (inactive), the EC50 [3] was 1.03 µM (active) and the EC50 [4] was > 29.9 µM (inactive). The EC50 [5] was > 53 µM (inactive), the IC50 [6] was > 29.9 µM (inactive) and the IC50 [7] was 5.74 µM (active).

For `C[C@@H]1CN([C@@H](C)CO)C(=O)c2cccc(NC(=O)c3ccc(-c4nccs4)cc3)c2O[C@H]1CN(C)CC1CCCCC1`, the AC50 [1] was 4.06 µM (active).

In the case of `Cc1noc(C)c1S(=O)(=O)Nc1ccc2c(c1)C(=O)N([C@H](C)CO)C[C@H](C)[C@@H](CN(C)Cc1ccc(C(=O)Nc3ccccc3N)cc1)O2`, the AC50 [1] is reported as 1.4 µM (active).

For `Cc1ccc(S(=O)(=O)Nc2ccc3c(c2)CC(=O)N([C@@H](C)CO)C[C@@H](C)[C@@H](CN(C)Cc2ccc(Oc4ccccc4)cc2)O3)cc1`, the AC50 [1] was 4.9 µM (active).

With `CNCCc1ccccn1` the EC50 [3] was 1.24 µM (active), the EC50 [4] was > 29.9 µM (inactive) and the IC50 [6] was > 29.9 µM (inactive). For the same molecule, the IC50 [7] was 6.02 µM (active).

For `C[C@@H]1CCCCO[C@H](CN(C)Cc2ccccc2)[C@@H](C)CN([C@@H](C)CO)C(=O)c2cc(NC(=O)Nc3ccc(C(F)(F)F)cc3)ccc2O1`, the AC50 [8] was 44.5 µM (active), the AC50 [9] was 33.6 µM (active) and the AC50 [10] was 19 µM (active).

With `C[C@@H]1CN([C@H](C)CO)S(=O)(=O)c2ccc(C#Cc3ccncc3)cc2O[C@H]1CN(C)C(=O)C1CCCCC1` the AC50 [8] was 17.1 µM (active) and the AC50 [10] was 3.13 µM (active).

In the case of `c1ccc(CCNc2ncnc3[nH]cnc23)cc1`, the EC50 [3] is reported as 3.94 µM (active), the EC50 [4] is reported as > 29.9 µM (inactive) and the IC50 [6] is reported as > 29.9 µM (inactive). The IC50 [7] was 8.92 µM (active).

With `C[C@H]1CN([C@@H](C)CO)C(=O)Cc2cc(NC(=O)C3CC3)ccc2O[C@@H]1CN(C)Cc1ccc(C(F)(F)F)cc1` the AC50 [1] was 3.25 µM (active).

For `Cn1c(=O)[nH]c(=O)c2c1nc(N1CCCCC1)n2CCCSc1nc2ccccc2s1`, the CC50 [11] was > 100 µM (active).

For `NC(=O)CCCn1c(C(=O)c2cc(Cl)c(N)c(Cl)c2)c2ccc([N+](=O)[O-])cc2[n+]1[O-]`, the IC50 [12] was > 20 µM (inactive) and the IC50 [13] was 12.3 µM (active).

With `CCN1CCN(C(=O)c2ccc3nc(-c4ccccc4)c(-c4ccccc4)nc3c2)CC1` the IC50 [13] was 15.6 µM (active).

In the case of `COc1cccc(Nc2nc(C(N)COCc3ccccc3)cs2)n1` (stereo unspecified), the EC50 [3] is reported as 2.55 µM (active), the EC50 [4] is reported as 22.2 µM (inactive) and the IC50 [6] is reported as 21.9 µM (inactive). For the same molecule, the IC50 [7] was 8.79 µM (active).

With `COc1ccc(CN(C)C[C@@H]2OCCCC[C@H](C)Oc3ccc(NS(=O)(=O)c4ccc(C)cc4)cc3C(=O)N([C@H](C)CO)C[C@H]2C)cc1` the AC50 [9] was 44.6 µM (active), the AC50 [10] was 16.8 µM (active) and the AC50 [14] was 64.6 µM (active).

In the case of `CN(C)c1cccc2c(S(=O)(=O)NC(=O)[C@H]3O[C@@H](n4cnc5c(N)ncnc54)[C@H](O)[C@@H]3O)cccc12`, the EC50 [15] is reported as 8.16 µM (active).

For `CC(C)C(=O)Nc1cccc(NC(=O)c2ccc(Cl)cc2Cl)c1`, the IC50 [13] was 7.24 µM (active).

In the case of `C[C@@H]1CCCCO[C@H](CN(C)Cc2ccc(Cl)c(Cl)c2)[C@@H](C)CN([C@H](C)CO)C(=O)c2cc(NC(=O)Nc3cccc4ccccc34)ccc2O1`, the AC50 [1] is reported as 3.72 µM (active).

In the case of `CC(C)Nc1nc(-c2ccccc2CO)c2sccc2n1`, the EC50 [15] is reported as > 69.6 µM (inactive).

For `Cc1cc(C(=O)CN2C(=O)C(=O)N(C3CCCC3)C2=O)c(C)n1CCc1ccccc1`, the EC50 [3] was 1.89 µM (active), the EC50 [4] was > 29.9 µM (inactive) and the IC50 [6] was > 29.9 µM (inactive). For the same molecule, the IC50 [7] was 3.28 µM (active).

With `Cc1cc(NCCCCO)n2c(nc3ccccc32)c1C#N` the EC50 [15] was > 69.5 µM (inactive).

For `O=c1c2ccccc2nc(COc2ccccc2)n1/N=C/c1ccc(O)c(O)c1`, the IC50 [16] was 11.7 µM (active) and the AC50 [17] was 8.78 µM (active).
